As usually defined, the EC50 is the concentration needed to bring the measured effect to its halfway point.

Where only a bound is given, the exact number is not on record here.

EC50 data for 32 compounds are collected here from patent US6683077B2, “2-Amino-benzoxazinones for the treatment of viral infections” (G.D. Searle & Co., priority 1996, dated 2004).

The assay has as its system HCMV engineered virus RC256. The assay can be described thus: microbe, parasite or virus in culture. The format is cell-based, human cytomegalovirus. The conditions noted are these: Human betaherpesvirus 5, Fibroblast, read-out: Antiviral Activity RC256, first value (EC50).
As to `Cc1cccc2nc(N[C@@H](C)C(=O)OC(C)(C)C)oc(=O)c12` [Example 1, N-(5-Methyl-4-oxo-4H-3,1-benzoxazin-2-yl)-L-alanine, tert-butyl Ester], the EC50 stood at 100 µM.
For `COC(=O)[C@@H](C)Nc1nc2cccc(C)c2c(=O)o1` [Example 1c, N-(5-Methyl-4-oxo-4H-3,1-benzoxazin-2-yl)-D-alanine, methyl ester], the 50% effective concentration (EC50) is greater than 100 µM.
Regarding `Cc1cccc2nc(N[C@@H](CCCCNC(=O)OCc3ccccc3)C(=O)OC(C)(C)C)oc(=O)c12` [Example 1i, N^α-(5-Methyl-4-oxo-4H-3,1-benzoxazin-2-yl)-N^ε-[(phenylmethoxy)carbonyl)-L-lysine, 1,1-dimethylethyl ester], the EC50 was found to be 9 µM.
For `COC(=O)[C@H](Cc1ccccc1)Nc1nc2cccc(C)c2c(=O)o1` [Example 1k, N-(5-Methyl-4-oxo-4H-3,1-benzoxazin-2-yl)-L-phenylalanine, methyl ester], the EC50 is greater than 100 µM.
With `Cc1cccc2nc(N[C@@H](Cc3ccc(O)cc3)C(=O)OC(C)(C)C)oc(=O)c12` [Example 1l, N-(5-Methyl-4-oxo-4H-3,1-benzoxazin-2-yl)-L-tyrosine, 1,1-dimethylethyl ester], the half-maximal effective concentration (EC50) was found to be 35 µM.
`COC(=O)[C@H](Cc1c[nH]c2ccccc12)Nc1nc2cccc(C)c2c(=O)o1` [Example 1m, N-(5-Methyl-4-oxo-4H-3,1-benzoxazin-2-yl)-L-tryptophan, methyl ester]: the half-maximal effective concentration (EC50) is 56 µM.
For `Cc1cccc2nc(N[C@H](C(=O)OC(C)(C)C)c3ccccc3)oc(=O)c12` [Example 1o, N-(5-Methyl-4-oxo-4H-3,1-benzoxazin-2-yl)-L-phenylglycine, 1,1-dimethylethyl ester], the EC50 was 10 µM.
In the case of `COC[C@H](Cc1ccccc1)Nc1nc2cccc(C)c2c(=O)o1` [Example 1p, 2-[[2-Methoxy-(1S)-(1-phenylmethyl)ethyl]amino]-5-methyl-4H-3,1-benzoxazin-4-one] it was 38 µM; in that of `COC(=O)[C@H](Cc1ccc(OC)cc1)Nc1nc2cccc(C)c2c(=O)o1` [Example 1r, N-(5-Methyl-4-oxo-4H-3,1-benzoxazin-2-yl)-O-methyl-L-tyrosine, methyl ester], 59 µM.
As to `COc1ccc(C[C@H](Nc2nc3cccc(C)c3c(=O)o2)C(=O)N(C)Cc2ccccc2)cc1` [Example 1s, αS-[(5-Methyl-4-oxo-4H-3,1-benzoxazin-2-yl)amino]-4-methoxy-N-methyl-N-(phenylmethyl)benzenepropanamide], the EC50 was determined as 7 µM.
In the case of `COc1ccc(C[C@H](Nc2nc3cccc(OC)c3c(=O)o2)C(=O)N(C)Cc2ccccc2)cc1` [Example 1u, N-[5-Methoxy-4-oxo-4H-3,1-benzoxazin-2-yl]-O-methyl-L-tyrosine, N-methyl-N-phenylmethylamide] it was 14 µM.
Consider `Cc1cccc2nc(N[C@H](C)c3ccccc3)oc(=O)c12` [Example 3c, 5-Methyl-2-[[(1R)-1-phenylethyl]amino]-4H-3,1-benzoxazin-4-one], for which the EC50 was 17 µM.
Turning to `COC(=O)[C@H](Cc1ccccc1)Nc1nc2ccc(NC(=O)OC(C)(C)C)c(C)c2c(=O)o1` [Example 6a, N-[6-[[(1,1-Dimethylethoxy]carbonyl]amino]-5-methyl-4-oxo-4H-3,1-benzoxazin-2-yl]-L-phenylalanine, methyl ester], the concentration for a half-maximal effect (EC50) was found to be 71 µM.
For `Cc1c(NC(=O)OC(C)(C)C)ccc2nc(N[C@@H](Cc3ccc(I)cc3)C(=O)N(C)C)oc(=O)c12` [Example 6cc, 1,1-Dimethylethyl[2-[[2-(dimethylamino)-1S-[(4-iodophenyl)methyl]-2-oxoethyl]amino]-5-methyl-4-oxo-4H-3,1-benzoxazin-6-yl]carbamate], the half-maximal effective concentration (EC50) stood at 40 µM.
For `COc1ccc(C[C@H](Nc2nc3ccc(NC(=O)OC(C)(C)C)c(C)c3c(=O)o2)C(=O)N(C)C)cc1` [Example 6d, N-[6-[[(1,1-Dimethylethoxy)carbonyl]amino]-5-methyl-4-oxo-4H-3,1-benzoxazin-2-yl]-O-methyl-L-tyrosine, dimethylamide], the EC50 amounted to 45 µM.
Regarding `CCN(CC)C(=O)[C@H](Cc1ccccc1)Nc1nc2ccc(NC(=O)OC(C)(C)C)c(C)c2c(=O)o1` [Example 6ee, 1,1-Dimethylethyl[2-[[2-(diethylamino)-2-oxo-1S-(phenylmethyl)ethyl]amino]-5-methyl-4-oxo-4H-3,1-benzoxazin-6-yl]carbamate], the EC50 worked out at 26 µM.
On to `COc1ccc(C[C@H](Nc2nc3ccc(NC(=O)OC(C)(C)C)c(C)c3c(=O)o2)C(=O)NCc2ccccn2)cc1` [Example 6gg, 1,1-Dimethylethyl[2-[[1S-[(4-methoxphenyl)methyl]-2-oxo-2-[[(2-pyridinyl)methyl]amino]ethyl]amino]-5-methyl-4-oxo-4H-3,1-benzoxazin-6-yl]carbamate], for which the half-maximal effective concentration (EC50) came out at 6.5 µM.
In the case of `COc1ccc(C[C@H](Nc2nc3ccc(NC(=O)OC(C)(C)C)c(C)c3c(=O)o2)C(=O)N2CCOCC2)cc1` [Example 6i, N-[6-[[(1,1-Dimethylethoxy)carbonyl]amino]-5-methyl-4-oxo-4H-3,1-benzoxazin-2-yl]-O-methyl-L-tyrosine, morpholineamide] it was 48 µM; in that of `Cc1c(NC(=O)OC(C)(C)C)ccc2nc(N[C@H](C)c3ccccc3)oc(=O)c12` [Example 6n, 6-[[(1,1-Dimethylethoxy)carbonyl]amino]-5-methyl-2-[[(1R)-phenylethyl]amino]-4H-3,1-benzoxazin-4-one], 10 µM; in that of `Cc1c(NC(=O)OC(C)(C)C)ccc2nc(N[C@@H](Cc3c[nH]c4ccccc34)C(=O)N(C)C)oc(=O)c12` [Example 6o, N-[6-[[(1,1-Dimethylethoxy)carbonyl]amino]-5-methyl-4-oxo-4H-3,1-benzoxazin-2-yl]-L-tryptophan, dimethylamide], 59 µM.
In the case of `COC(=O)[C@H](Cc1cc(I)c(OC)c(I)c1)Nc1nc2ccc(NC(=O)OC(C)(C)C)c(C)c2c(=O)o1` [Example 6s, N-[6-[[(1,1-Dimethylethoxy)carbonyl]amino]-5-methyl-4-oxo-4H-3,1-benzoxazin-2-yl]-3,5-diiodo-O-methyl-L-tyrosine, methyl ester] it was 18 µM.
On to `COC(=O)[C@H](Cc1ccc(I)cc1)Nc1nc2ccc(NC(=O)OC(C)(C)C)c(C)c2c(=O)o1` [Example 6t, N-[6-[[(1,1-Dimethylethoxy)carbonyl]amino]-5-methyl-4-oxo-4H-3,1-benzoxazin-2-yl]-4-iodo-L-phenylalanine, methyl ester], for which the EC50 stood at 17 µM.
Take `COC(=O)C(C)(C)Nc1nc2ccc(NC(=O)OC(C)(C)C)c(C)c2c(=O)o1` [Example 6w, N-[6-[[(1,1-Dimethylethoxy)carbonyl]amino]-5-methyl-4-oxo-4H-3,1-benzoxazin-2-yl]-2-aminoisobutyric acid, methyl ester]: the concentration for a half-maximal effect (EC50) is greater than 100 µM.
As to `COc1ccc(C[C@H](Nc2nc3ccc(CNC(=O)OC(C)(C)C)c(C)c3c(=O)o2)C(=O)N2CCOCC2)cc1` [Example 7h, 1,1-Dimethylethyl[[2-[[1S-[(4-methoxyphenyl)methyl]-2-(4-morpholinyl)-2-oxoethyl]amino]-5-methyl-4-oxo-4H-3,1-benzoxazin-6-yl]methyl]carbamate], the EC50 came out at 16 µM.
Regarding `COc1ccc(C[C@H](Nc2nc3ccc(CNC(=O)OC(C)(C)C)c(C)c3c(=O)o2)C(=O)N(C)Cc2ccccc2)cc1` [Example 7i, 1,1-Dimethylethyl[[2-[[1S-[(4-methoxyphenyl)methyl]-2-[methyl(phenylmethyl)amino]-2-oxoethyl]amino]-5-methyl-4-oxo-4H-3,1-benzoxazin-6-yl]methyl]carbamate], the 50% effective concentration (EC50) was 30 µM.
In the case of `CCN(Cc1ccccc1)C(=O)[C@H](Cc1ccccc1)Nc1nc2ccc(CNC(=O)OC(C)(C)C)c(C)c2c(=O)o1` [Example 7l, 1,1-Dimethylethyl[[2-[[2-[ethyl(phenylmethyl)amino]-2-oxo-1S-(phenylmethyl)ethyl]amino]-5-methyl-4-oxo-4H-3,1-benzoxazin-6-yl]methyl]carbamate] it was 13 µM.
In the case of `Cc1c(CNC(=O)OC(C)(C)C)ccc2nc(N[C@@H](Cc3ccccc3)C(=O)N(C)Cc3cccnc3)oc(=O)c12` [Example 7s, 1,1-Dimethylethyl[[5-methyl-2-[[2-[methyl[(3-pyridinyl)methyl]amino]-1S-(phenylmethyl)-2-oxoethyl]amino]4-oxo-4H-3,1-benzoxazin-6-yl]methyl]carbamate] it was 16 µM; in that of `CCN(Cc1ccccc1)C(=O)[C@H](Cc1ccccc1)Nc1nc2ccc(N)c(C)c2c(=O)o1` [Example 8f, αS-[(6-Amino-5-methyl-4-oxo-4H-3,1-benzoxazin-2-yl)amino]-N-ethyl-N-(phenylmethyl)benzenepropanamide], 17 µM.
For `CCN(Cc1ccccc1)C(=O)[C@H](Cc1ccccc1)Nc1nc2c(Br)cc(N)c(C)c2c(=O)o1` [Example 8g, αS-[(6-Amino-8-bromo-5-methyl-4-oxo-4H-3,1-benzoxazin-2-yl)amino]-N-ethyl-N-(phenylmethyl)benzenepropanamide] the value was 8.5 µM; for `COc1ccc(C[C@H](Nc2nc3ccc(N)c(C)c3c(=O)o2)C(=O)N(C)Cc2ccccc2)cc1` [Example 8h, αS-[(6-amino-5-methyl-4-oxo-4H-3,1-benzoxazin-2-yl)amino]-N-methyl-4-methoxy-N-(phenylmethyl)benzenepropanamide], 100 µM.
For the compound `Cc1c(CNC(=O)CCc2ccccc2)ccc2nc(N[C@@H](Cc3ccccc3)C(=O)N(C)Cc3cccnc3)oc(=O)c12` [Example 9aa, N-Methyl-αS-[[5-methyl-4-oxo-6-[[(1-oxo-3-phenylpropyl)amino]methyl]-4H-3,1-benzoxazin-2-yl]amino]-N-(3-pyridinylmethyl)benzenepropanamide], the concentration giving a half-maximal response (EC50) amounted to 33 µM.
As for `COc1ccc(C[C@H](Nc2nc3ccc(CNC(=O)CN4CCCC4)c(C)c3c(=O)o2)C(=O)N(C)Cc2ccccc2)cc1` [Example 9c, N-[[2-[[1S-[(4-Methoxyphenyl)methyl]-2-[methyl(phenylmethyl)amino]-2-oxoethyl]amino]-5-methyl-4-oxo-4H-3,1-benzoxazin-6-yl]methyl]pyrrolidine-1-acetamide], the concentration giving a half-maximal response (EC50) came to 9 µM.
